Assay [1] concerns the target EGFR (human) (UniProt P00533). As to the kind of experiment: Assessment of DiFi Cell Growth Inhibition by MTS Assay.
The target in assay [2] is EGFR (human) (UniProt P00533). To be noted: huvec.
For the next assay, the target named is EGFR (UniProt P00533).
Sequence of EGFR (P00533 whole entry, looked up): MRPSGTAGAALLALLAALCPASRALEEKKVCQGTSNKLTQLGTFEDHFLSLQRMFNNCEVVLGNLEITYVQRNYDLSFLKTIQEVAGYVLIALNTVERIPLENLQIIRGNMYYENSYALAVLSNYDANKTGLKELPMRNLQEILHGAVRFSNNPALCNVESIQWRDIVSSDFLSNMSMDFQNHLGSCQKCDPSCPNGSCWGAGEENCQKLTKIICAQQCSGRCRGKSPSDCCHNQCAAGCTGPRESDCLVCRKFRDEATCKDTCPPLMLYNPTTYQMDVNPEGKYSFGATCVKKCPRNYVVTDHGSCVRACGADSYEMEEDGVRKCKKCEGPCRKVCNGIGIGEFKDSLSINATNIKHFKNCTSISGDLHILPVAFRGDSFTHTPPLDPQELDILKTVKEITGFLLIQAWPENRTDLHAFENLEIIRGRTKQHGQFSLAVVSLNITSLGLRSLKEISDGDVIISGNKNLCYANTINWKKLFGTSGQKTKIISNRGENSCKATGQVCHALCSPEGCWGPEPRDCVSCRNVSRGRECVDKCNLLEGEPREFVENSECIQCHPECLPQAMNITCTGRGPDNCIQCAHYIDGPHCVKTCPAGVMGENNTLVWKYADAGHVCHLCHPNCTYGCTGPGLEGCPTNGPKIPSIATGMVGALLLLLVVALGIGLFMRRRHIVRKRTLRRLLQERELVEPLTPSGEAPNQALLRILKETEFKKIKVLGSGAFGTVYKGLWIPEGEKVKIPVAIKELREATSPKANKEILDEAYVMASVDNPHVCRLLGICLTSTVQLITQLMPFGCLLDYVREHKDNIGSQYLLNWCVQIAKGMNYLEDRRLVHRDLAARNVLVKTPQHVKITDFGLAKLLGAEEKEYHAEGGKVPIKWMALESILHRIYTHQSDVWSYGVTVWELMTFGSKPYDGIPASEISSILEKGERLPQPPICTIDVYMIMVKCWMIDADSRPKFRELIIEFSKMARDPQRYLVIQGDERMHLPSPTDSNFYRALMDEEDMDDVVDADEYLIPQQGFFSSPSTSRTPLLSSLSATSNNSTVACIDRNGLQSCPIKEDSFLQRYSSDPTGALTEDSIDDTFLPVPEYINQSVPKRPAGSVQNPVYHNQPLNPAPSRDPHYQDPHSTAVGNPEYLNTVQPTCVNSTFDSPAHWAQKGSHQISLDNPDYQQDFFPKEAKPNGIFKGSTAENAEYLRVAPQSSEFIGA

Sequence of EGFR (human) (P00533 whole entry, looked up): as above

The term IC50 denotes the point on the concentration scale where inhibition reaches its midpoint. In the case of `Cc1ccc(Nc2ncnn3ccc(C)c23)cc1O`, the half-inhibitory concentration (IC50) was more than 10000 nM against EGFR (human) [1] and 270 nM on EGFR (human) [2]. The molecule `Cc1ccc(Nc2ncnn3cccc23)cc1O` came in with an IC50 against EGFR (human) [1] of more than 10000 nM. On the same count and under the same terms, the result for `Cc1cc2c(Nc3ccc(C)c(O)c3)ncnn2c1` reads more than 10000 nM.

Consider `Cc1ccc(Nc2ncnn3c(C)ccc23)cc1O`, for which the IC50 at EGFR (human) [1] was more than 10000 nM; on EGFR (human) [2], 101 nM. For `Cc1ccn2ncnc(Nc3ccc(F)c(Cl)c3)c12` the same measures were 3060 nM and 602 nM. Regarding `Cc1cc2c(Nc3ccc(F)c(Cl)c3)ncnn2c1`, the half-maximal inhibitory concentration (IC50) against EGFR (human) [1] was found to be 1600 nM; on EGFR (human) [2], 509 nM. On EGFR (human) [1], `Cc1ccc(Nc2ncnn3cc(C)c(C)c23)cc1O` came in with an IC50 of more than 10000 nM. For `Cc1ccc2c(Nc3ccc(F)c(Cl)c3)ncnn12`, the values for the IC50 on EGFR (human) [1] and on EGFR (human) [2] were more than 10000 nM and more than 2500 nM, respectively. In the case of `Fc1ccc(Nc2ncnn3cccc23)cc1Cl`, the results for the IC50 at EGFR (human) [1], against EGFR (human) [2] and against EGFR were 1840 nM, 345 nM and 118 nM, respectively.

For the origin of these results see the Kinase Knowledgebase extract (Sharma et al. 2016).
